The text below walks through data of paper PMC9140920 (International Journal of Molecular Sciences, 2022).

In general, IC20 refers to the concentration at which the effect reaches the 20% level. As a reminder, the IC50 is the midpoint of a concentration-inhibition curve. For orientation: IC80 means the point of the concentration-response curve where the effect stands at 80%.

One test concerns TM4 mouse Sertoli cells. The test is described as follows: Cell growth and viability (MTT), dose-response of the drugs alone. In kind it is cell-based. The protocol:
Cells were maintained in standard conditions for 24 h before treatments. […] All azoles were dissolved in DMSO. In an effort to avoid a possible experimental artifact with vehicles, experiments were performed including control groups in which the effect of the drug vehicle alone was tested (vehicle control, vCTR). […] For experiments with N-acetylcysteine (NAC), 24 h after seeding cells were pre-treated for 1 h with the ROS inhibitor (1 mM) and then maintained in co-treatment with azoles for 48 h.
TM4 cells were seeded at a density of 1 × 10^4/cm^2, and cultures incubated at standard conditions in the presence or the absence of azoles to reach final concentrations ranging from 0.078 µM up to 320 µM in culture medium. Cell growth and viability were assessed at 24 and 48 h by Trypan-blue exclusion assay and MTT (3-(4,5-dimethylthiazol-2-yl)-2,5-diphenyl-2H-tetrazolium-bromide) colorimetric method (Sigma-Aldrich, St. Louis, MO, USA), quantifying the metabolic efficiency of living cells.
The Interaction Index (II) was calculated, as previously described, by modifying the Chou and Talalay equation [78]. Specifically, Chou and Talalay’s median-effect method estimates the IC50 and the sigmodicity coefficient m values using linear regression of the linearised dose-response curve.
For a two-drug assay, II is the summation of the ratios of the doses (Dn) of the drugs in combination, and the concentrations of the two drugs alone (IDx,n), to obtain a fraction x of cells affected by drug combinations (Fa). IDx,n is estimated by the following equation:(1) IDx,n=IC50(Fa/1−Fa)^1/mn

A further test concerns TM4 cells. The test is described as follows: Annexin V-FITC / propidium iodide assay of apoptosis and necrosis. To be noted: 48 h, annexin V/PI, vs vCTR. The format is cell-based, mouse. The protocol: Cells were maintained in standard conditions for 24 h before treatments. […] All azoles were dissolved in DMSO. In an effort to avoid a possible experimental artifact with vehicles, experiments were performed including control groups in which the effect of the drug vehicle alone was tested (vehicle control, vCTR). In these experimental conditions, we excluded any negative effects of DMSO that is biocompatible with no biological effect per se. For experiments with N-acetylcysteine (NAC), 24 h after seeding cells were pre-treated for 1 h with the ROS inhibitor (1 mM) and then maintained in co-treatment with azoles for 48 h.
Treated and control cells (vCTR) (1 × 10^6) were collected; after washing in ice-cold PBS, samples were resuspended in 1 mL of binding buffer (10 mM HEPES, 140 mM NaCl, and 2.5 mM CaCl2, at pH 7.4) containing 10 µg/mL Annexin V-FITC and 1 µg/mL PI. After staining (1 h incubation at room temperature), cells were then washed and subsequently analysed using an FACS Calibur instrument (BD Instruments Inc., San José, CA, USA). Cells treated with 25 µM Etoposide (Eto) for 24 h were used as a positive control for apoptosis induction. Data from 10,000 events per sample were collected and analysed using an FACS Calibur instrument (BD Instruments Inc., San José, CA, USA ) equipped with cell cycle analysis software (Modfit LT for Mac V3.0) in order to calculate the percentages of apoptotic and necrotic cells.

Entries after “also recorded” stand apart in the source; their conditions may differ. Read-outs that look alike come from different tables or passages of the source.

Take `CCCN(CCOc1c(Cl)cc(Cl)cc1Cl)C(=O)n1ccnc1` [PCZ, prochloraz]: the IC20 in the test with TM4 mouse Sertoli cells (Mus musculus, TM4, 48 h, read-out: IC20 ± SE) turned out to be 18.5 ± 3.9 µM. Moreover, the IC50 was approximately 73 µM with TM4 mouse Sertoli cells (Mus musculus, TM4, 48 h, read-out: IC50 ± SE, TM4 cells, 48 h of exposure, drug alone, 50% fraction of cells affected (Fa), non-linear fitting) and 73.8 ± 15.6 µM in the test on TM4 mouse Sertoli cells (read-out: IC50 ± SE, TM4 cells, 48 h of exposure, drug alone, 50% fraction of cells affected (Fa), non-linear fitting). In the test with TM4 mouse Sertoli cells (Mus musculus, TM4, 48 h, read-out: IC80 ± SE), the IC80 was found to be 295 ± 62.3 µM. Also, the “apoptosis induction / cell death” value in the test with TM4 cells is recorded as “no significant differences; also recorded: not able to induce cell death”.
